Laboratory results published in patent US20050124533A1, “Glucocorticoid blocking agents for increasing blood-brain barrier permeability stan-261con” (priority 2002, published 2005).

Key:
[1] = in vivo; cited from earlier work
[2] = system: sensitive bacterial strains; details: cited from earlier work
[3] = system: dopamine metabolites HVA and DOPAC in the brain; assay: Example 1: brain dopamine metabolites (HVA, DOPAC) in adrenalectomized rats with corticosterone or placebo pellets; type: in vivo, rat; details: vehicle (placebo) pellet animals; haloperidol 1 mg/kg s.c. or clozapine 15 mg/kg s.c. two hours prior to sacrifice
Description: The implanted pellets contained either 100 mg corticosterone (for haloperidol experiments), 50 mg corticosterone (for clozapine experiments) or placebo. Two hours prior to sacrifice the animals were injected with either haloperidol (1 mg/kg s.c; RBI Natick, Mass.) or an equivalent volume of vehicle (0.3% tartaric acid, pH 5.3) or with either clozapine (15 mg/kg s.c.; RBI, Natick, Mass.) or vehicle (0.9% saline plus 0.8% acetic acid).
Animals were sacrificed by decapitation during the first four hours of the light cycle, blood collected and brains removed and frozen on dry ice and stored at −80° C. Corticosterone was measured in plasma by radioimmunoassay (ICN Biochem, Costa Mesa, Calif.) to confirm adrenalectomy and corticosterone replacement. […] Brain regions were dissected within 24-72 hours of slicing. Tissue was placed in 0.1 M perchloric acid with 0.1 mM EDTA and stored for no longer than 2 weeks at −80° C.
Dopamine metabolites homovanillic acid (HVA) and dihydroxyphenylacetic acid (DOPAC) were measured in the brains of the experimental animals. Samples were thawed, homogenized by sonication in 0.1 M perchloric acid/0.1 mM EDTA, and centrifuged for 2 minutes. Tissue pellets were dissolved in 1.0 N NaOH for protein determination (Bio-Rad, Richmond, Calif.). […] DOPAC and HVA were detected using an electrochemical detector. […]

[4] = system: blood-brain barrier (BBB) permeability; assay: Example 6: brain adriamycin concentration in rats given mifepristone or placebo; type: in vivo, rat; details: mifepristone 2 mg s.c. four hours prior to sacrifice; adriamycin 0.5 mg i.v.
Description: Animal sacrifice is by decapitation during the first four hours of the light cycle. Blood is collected and brains removed and frozen on dry ice for storage at −80° C. Adriamycin concentration is measured in the brains of the experimental animals.

[5] = system: dopamine metabolites HVA and DOPAC in the brain; assay: Example 2: brain dopamine metabolites (HVA, DOPAC) in rats given mifepristone or placebo pellet; type: in vivo, rat; details: mifepristone 200 mg 10-day sustained-release pellet
Description: Rats (male Sprague Dawley 175-200 grams) are maintained, 3 rats per cage, under controlled temperature and lighting (12 hours light/12 hours dark) with food and water ad libitum. […] Two hours prior to sacrifice the animals are injected with either haloperidol (1 mg/kg s.c; […] RBI, Natick, Mass.) or vehicle (0.9% saline plus 0.8% acetic acid). Animal sacrifice is by decapitation during the first four hours of the light cycle. Blood is collected and brains removed and frozen on dry ice for storage at −80° C. Frozen brains are sliced into 250 μm sections with a cryostat. The medial prefrontal cortex (AP 13.7 to 12.2 mm) is dissected with a scalpel, the striatum (AP 10.7 to 9.7 mm) is removed with stainless steel cannulae from frozen slices and the core and shell of the nucleus accumbens (AP 10.7 to 9.7 mm) is removed. Brain regions are dissected within 24-72 hours of slicing. […] Dopamine metabolites homovanillic acid (HVA) and dihydroxyphenylacetic acid (DOPAC) are measured in the brains of the experimental animals. […] DOPAC and HVA were detected using an electrochemical detector. […] Brain clozapine levels are analyzed by National Medical Services, Inc. (Willow Grove, PN) while brain and plasma haloperidol and reduced haloperidol and plasma clozapine levels are analyzed by Analytical Psychopharmacology Laboratories (Nathan Kline Institute, Orangeburg, N.Y.), both by gas chromotography.

[6] = system: blood-brain barrier (BBB) permeability; assay: Example 3: brain Amphotericin B concentration in rats given mifepristone or placebo; type: in vivo, rat; details: mifepristone 200 mg 10-day sustained release pellet; Amphotericin B 0.1 mg i.v.
Description: Animal sacrifice is by decapitation during the first four hours of the light cycle. Blood is collected and brains removed and frozen on dry ice for storage at −80° C. Amphotericin B concentration is measured in the brains of the experimental animals.

[7] = system: blood-brain barrier (BBB) permeability; assay: Example 2: brain haloperidol and clozapine levels in rats given mifepristone or placebo pellet; type: in vivo, rat; details: mifepristone 200 mg 10-day sustained-release pellet
Description: Animal sacrifice is by decapitation during the first four hours of the light cycle. Blood is collected and brains removed and frozen on dry ice for storage at −80° C.

[8] = system: blood-brain barrier (BBB) permeability; assay: Example 5: brain methotrexate concentration in rats given mifepristone or placebo; type: in vivo, rat; details: mifepristone 200 mg 10 day sustained-release pellet; methotrexate 0.5 mg i.v.
Description: Animal sacrifice is by decapitation during the first four hours of the light cycle. Blood is collected and brains removed and-frozen on dry ice for storage at −80° C. Methotrexate concentration is measured in the brains of the experimental animals.

[9] = system: blood-brain barrier (BBB) permeability; assay: Example 4: brain ampicillin concentration in rats given mifepristone or placebo; type: in vivo, rat; details: mifepristone 200 mg 10-day sustained release pellet; ampicillin 1.5 mg i.v.
Description: Animal sacrifice is by decapitation during the first four hours of the light cycle. Blood is collected and brains removed and frozen on dry ice for storage at −80° C. Ampicillin concentration is measured in the brains of the experimental animals.

Nc1nc2c(ncn2COCCO)c(=O)[nH]1 [Acyclovir, acyclovir]
concentrations achieved in the CNS as share of those achieved in plasma [1]: 30-50%

O=C(N[C@H](CO)[C@H](O)c1ccc([N+](=O)[O-])cc1)C(Cl)Cl [Chloramphenicol, chloramphenicol]
concentration effective against sensitive bacterial strains [2]: ≤ 8 µg/mL

O=C(CCCN1CCC(O)(c2ccc(Cl)cc2)CC1)c1ccc(F)cc1 [haloperidol]
levels of HVA and DOPAC in the brain [3]: elevated

CC#C[C@]1(O)CC[C@H]2[C@@H]3CCC4=CC(=O)CCC4=C3[C@@H](c3ccc(N(C)C)cc3)C[C@@]21C [mifepristone, (11,17)-11-[4-(dimethylmino)phenyl]-17-hydroxy-17-(1-propynyl)estra-4,9-dien-3-one]
brain adriamycin concentration, mifepristone-treated vs placebo [4]: greater | increase in brain dopamine metabolite levels following clozapine, mifepristone-treated vs placebo ([5]; clozapine 15 mg/kg s.c.): greater | increase in brain dopamine metabolite levels following haloperidol, mifepristone-treated vs placebo ([5]; haloperidol 1 mg/kg s.c.): greater | brain Amphotericin B concentration, mifepristone-treated vs placebo [6]: greater | brain concentration of clozapine, mifepristone-treated vs placebo ([7]; clozapine 15 mg/kg s.c.): greater | brain concentration of haloperidol, mifepristone-treated vs placebo ([7]; haloperidol 1 mg/kg s.c.): greater | brain methotrexate concentration, mifepristone-treated vs placebo [8]: greater | brain ampicillin concentration, mifepristone-treated vs placebo [9]: greater
